# From patent US20250136579A1, “SALTS AND FREE BASES OF BIFUNCTIONAL COMPOUND AND POLYMORPH FORMS THEREOF” (NURIX THERAPEUTICS, INC., priority 2023, published 2025)
# “And” between values parts separate entries of the source, which are not always exact repeats. Identical values can stand only once. “Also recorded” adds a separate entry of the source. Counter-ions that a name gives are not always drawn.
# Tests used:
# Type in all cases: physicochemical
# [1] = heat stress on a TGA, recovered material analyzed by XRPD; settings: held ~1 minute; for Post-XRPD (150° C.): heated on TGA to 150° C.; for Post-XRPD (100° C.): heated on TGA to 100° C.
# Procedure: Samples of each form were heat stressed on a TGA. Samples were heated to the specified temperature and held at that temperature for approximately 1 minute. The material was then recovered from the TGA and analyzed by XRPD.
# [2] = stressing at 40° C./75% relative humidity (stability study, XRPD); settings: for physical stability to stressing at 40° C./75% relative humidity (RH): 7 days
# [3] = storage under ambient conditions (15° C. to 30° C.), form conversion; settings: temperature of from 15° C. to 30° C.
# Procedure: For Free Base Form E, Free Base Form F, Free Base Form G, Free Base Form H, and Free Base Form J: two different instruments were used for characterizing the materials by XRPD. Samples were analysed dry with a Malvern Panalytical Xpert Pro diffractometer, except for Free Base Form F. Free Base Form F was analysed using a Malvern Panalytical Empyrean diffractometer.
# Napsylate Salt Form C was analysed by XRPD.
# [4] = slurry of crystalline Fumarate Salt Form A in solvents, XRPD
# Excerpt: Regarding the use of crystalline Fumarate Salt Form A in polymorph screens, crystalline Fumarate Salt Form A as a starting material was mixed with different solvents under various conditions in attempts to generate polymorphs.
# [5] = dynamic vapor sorption (DVS) analysis, TA Instruments Q5000, 5 to 95% RH
# Procedure: For Fumarate Salt Form A, Dynamic vapor sorption (DVS) analysis was carried out using a TA Instruments Q5000 Dynamic Vapor Sorption analyser. The instrument was calibrated with standard weights and a sodium bromide standard for humidity. Approximately 10-25 mg of sample was loaded into a metal coated quartz pan for analysis. The sample was analysed at 25° C. with a maximum equilibration time of one hour in 10% relative humidity (RH) steps from 5 to 95% RH (adsorption cycle) and from 95 to 5% RH (desorption cycle). The movement from one step to the next occurred either after satisfying the equilibrium criterion of 0.01% weight change, or when the equilibrium criterion was not met after one hour. The percent weight change values were then calculated.
# [6] = water solubility, visual solubility estimation using pipet method; settings: thermodynamic from solid
# [7] = estimated solubility by adding test solvent in aliquots to weighed solid, visual inspection
# Procedure: Solubilities of the compound of Formula (I), free base, in a few solvents were estimated. The experiments were carried out by adding the test solvent in aliquots to weighed portions of solid. Whether dissolution had occurred was judged by visual inspection after addition of each solvent aliquot. Solubility numbers were calculated by dividing the weight of the sample by total amount of solvent used to dissolve the sample. The actual solubilities may be greater than the numbers calculated because of the use of solvent aliquots that were too large or because of slow dissolution rates. […] The solubility number is expressed as “greater than or equal to” if dissolution occurred on addition of the first solvent aliquot.
# Solubilities of Fumarate Salt Form A are shown in Tables 8 and 9, in selected solvents and aqueous binary mixtures.
# Solubilities of the compound of Formula (I), Fumarate Salt Form A, are shown in Tables 15 and 16, in selected solvents and aqueous binary mixtures.
# [8] = initial physical stability evaluation at various relative humidity, room temperature, ~1 week (XRPD, Karl Fischer)
# Procedure: In another one or more examples, Karl Fischer titrations (water content analysis) for fumarate salt(s) (e.g., Fumarate Salt Form A) were carried out using a Mettler-Toledo C20 Coulometric KF titrator. The instrument was calibrated using a Hydranal water standard containing 1% water. The titrant was a Hydranal methanol solution.
# For initial physical stability evaluation, Fumarate Salt Form A was stored at various relative humidity conditions and room temperature for approximately 1 week (Table 14). Subsamples of Fumarate Salt Form A (approximately 90 mg) were weighed and placed inside relative humidity (RH) jars; after 1 week the samples were analyzed by XRPD and Karl Fisher analysis; the results are summarized in Table 14.
smiles,measurement,setting,value
CN1CCN([C@@H]2CCCN(c3cnc(C(N)=O)c(Nc4ccc(C5CCN(CC6CCN(c7ccc(C(=O)N[C@H]8CCC(=O)NC8=O)nc7)CC6)CC5)cc4)n3)C2)C1=O [Free Base Form C],Post-XRPD (150° C.),[1]; listed as C,Free Base Form C
CN1CCN([C@@H]2CCCN(c3cnc(C(N)=O)c(Nc4ccc(C5CCN(CC6CCN(c7ccc(C(=O)N[C@H]8CCC(=O)NC8=O)nc7)CC6)CC5)cc4)n3)C2)C1=O [Succinate Salt Form B],form after stressing at 40° C./75% relative humidity (RH),[2]; 1 week (FIG. 72),converted back to Succinate Salt Form A
CN1CCN([C@@H]2CCCN(c3cnc(C(N)=O)c(Nc4ccc(C5CCN(CC6CCN(c7ccc(C(=O)N[C@H]8CCC(=O)NC8=O)nc7)CC6)CC5)cc4)n3)C2)C1=O [Free Base Form J],physical stability to stressing at 40° C./75% relative humidity (RH),[2],physically stable
CN1CCN([C@@H]2CCCN(c3cnc(C(N)=O)c(Nc4ccc(C5CCN(CC6CCN(c7ccc(C(=O)N[C@H]8CCC(=O)NC8=O)nc7)CC6)CC5)cc4)n3)C2)C1=O [Free Base Form G],physical stability to stressing at 40° C./75% relative humidity (RH),[2],not physically stable
CN1CCN([C@@H]2CCCN(c3cnc(C(N)=O)c(Nc4ccc(C5CCN(CC6CCN(c7ccc(C(=O)N[C@H]8CCC(=O)NC8=O)nc7)CC6)CC5)cc4)n3)C2)C1=O [Free Base Form A],Post-XRPD (100° C.),[1]; listed as A,Free Base Form A
CN1CCN([C@@H]2CCCN(c3cnc(C(N)=O)c(Nc4ccc(C5CCN(CC6CCN(c7ccc(C(=O)N[C@H]8CCC(=O)NC8=O)nc7)CC6)CC5)cc4)n3)C2)C1=O [Free Base Form H],physical stability to stressing at 40° C./75% relative humidity (RH),[2],physically stable
CN1CCN([C@@H]2CCCN(c3cnc(C(N)=O)c(Nc4ccc(C5CCN(CC6CCN(c7ccc(C(=O)N[C@H]8CCC(=O)NC8=O)nc7)CC6)CC5)cc4)n3)C2)C1=O [Napsylate Salt Form B],physical stability to ambient conditions,[3],conversion to Napsylate Salt Form C
CN1CCN([C@@H]2CCCN(c3cnc(C(N)=O)c(Nc4ccc(C5CCN(CC6CCN(c7ccc(C(=O)N[C@H]8CCC(=O)NC8=O)nc7)CC6)CC5)cc4)n3)C2)C1=O [Free Base Form E],physical stability to stressing at 40° C./75% relative humidity (RH),[2],physically stable
CN1CCN([C@@H]2CCCN(c3cnc(C(N)=O)c(Nc4ccc(C5CCN(CC6CCN(c7ccc(C(=O)N[C@H]8CCC(=O)NC8=O)nc7)CC6)CC5)cc4)n3)C2)C1=O [Free Base Form F],physical stability to stressing at 40° C./75% relative humidity (RH),[2],not physically stable
same,physical stability to ambient conditions,[3],converted on drying at ambient conditions (including a temperature of from 15 °C to 30° C.) to Free Base Form J; also recorded: not physically stable
CN1CCN([C@@H]2CCCN(c3cnc(C(N)=O)c(Nc4ccc(C5CCN(CC6CCN(c7ccc(C(=O)N[C@H]8CCC(=O)NC8=O)nc7)CC6)CC5)cc4)n3)C2)C1=O [Free Base Form D],Post-XRPD (100° C.),[1]; listed as D,Free Base Form D
CN1CCN([C@@H]2CCCN(c3cnc(C(N)=O)c(Nc4ccc(C5CCN(CC6CCN(c7ccc(C(=O)N[C@H]8CCC(=O)NC8=O)nc7)CC6)CC5)cc4)n3)C2)C1=O [Free Base Form B],Post-XRPD (150° C.),[1]; listed as B,Free Base Form A
CN1CCN([C@@H]2CCCN(c3cnc(C(N)=O)c(Nc4ccc(C5CCN(CC6CCN(c7ccc(C(=O)N[C@H]8CCC(=O)NC8=O)nc7)CC6)CC5)cc4)n3)C2)C1=O.O=C(O)/C=C/C(=O)O [Fumarate Salt Form A],stability upon slurry in aqueous binary mixtures with high water activities (XRPD),[4]; 50° C. for 1 week,appeared to be stable
same,result of slurries in non-aqueous and some low water activity solvents (XRPD),"[4]; e.g., dioxane/water 95:5, aw 0.4",disordered/low crystalline materials
same,DVS: water uptake in the range 40-75% RH,[5],approximately 0.5%
same,DVS: weight gain up to 95% RH,[5]; 25° C.,approximately 4%
same,DVS: hygroscopicity,"[5]; 25° C., 5 to 95% RH",Moderately hygroscopic
same,Post-DVS XRPD,[5]; material after sorption/desorption cycle,"Unchanged; also recorded: consistent with Fumarate Salt Form A exhibiting some peak shifting at higher angles; also recorded: Form A, high angle peak shifting"
same,DVS: water absorbed over each of the RH ranges 5 to 35%; 35 to 85%; 85 to 95% RH,[5]; one third of the total uptake per range,Approximately 1%
same,DVS: loss from 95 to 5% RH,[5]; ~800-mg scale lot,3% loss from 95 to 5% RH
same,DVS: loss upon drying at 5% RH,[5]; ~800-mg scale lot,0% loss upon drying at 5% RH
same,solubility,[6],< 300 µg/mL
same,solubility,"[7]; acetonitrile/H2O (45/55), aw 0.9, solubility without temperature",>10000 µg/mL
same,solubility,"[7]; aqueous with cosolvent or surfactant or cyclodextrin, thermodynamic from solid, 1,4-dioxane/H2O (60/40), aw 1.0, solubility without temperature, read-out: Solubility",10000 µg/mL
same,solubility,"[7]; aqueous with cosolvent or surfactant or cyclodextrin, thermodynamic from solid, 1,4-dioxane/H2O (95/5), aw 0.4, solubility without temperature, read-out: Solubility",1000 µg/mL
same,solubility,"[7]; aqueous with cosolvent or surfactant or cyclodextrin, thermodynamic from solid, 2-propanol/H2O (80/20), aw 0.9, at 45° C., read-out: Solubility",> 1000 µg/mL
same,solubility,"[7]; aqueous with cosolvent or surfactant or cyclodextrin, thermodynamic from solid, 2-propanol/H2O (80/20), aw 0.9, solubility without temperature, read-out: Solubility",< 1000 µg/mL
same,solubility,"[7]; aqueous with cosolvent or surfactant or cyclodextrin, thermodynamic from solid, acetone/H2O (70/30), aw 0.85, solubility without temperature, read-out: Solubility",6000 µg/mL
same,solubility,"[7]; aqueous with cosolvent or surfactant or cyclodextrin, thermodynamic from solid, acetonitrile/H2O (45/55), aw 0.9, solubility without temperature, read-out: Solubility",> 10000 µg/mL
same,solubility,"[7]; aqueous with cosolvent or surfactant or cyclodextrin, thermodynamic from solid, ethanol/H2O (70/30), aw 0.8, solubility without temperature, read-out: Solubility",4000 µg/mL
same,solubility,"[7]; aqueous with cosolvent or surfactant or cyclodextrin, thermodynamic from solid, methanol/H2O (50/50), aw 0.75, solubility without temperature, read-out: Solubility",2000 µg/mL
same,solubility,"[7]; aqueous with cosolvent or surfactant or cyclodextrin, thermodynamic from solid, tetrahydrofuran/H2O (80/20), aw 1, solubility without temperature, read-out: Solubility",> 9000 µg/mL
same,solubility,"[7]; organic solvent or mixture, thermodynamic from solid, 1,4-dioxane, at 60° C., read-out: Solubility",1000 µg/mL
same,solubility,"[7]; organic solvent or mixture, thermodynamic from solid, acetone, at 60° C., read-out: Solubility",< 1000 µg/mL
same,solubility,"[7]; organic solvent or mixture, thermodynamic from solid, acetonitrile (ACN), at 60° C., read-out: Solubility",< 1000 µg/mL
same,solubility,"[7]; organic solvent or mixture, thermodynamic from solid, dichloromethane (DCM), at 60° C., read-out: Solubility",< 1000 µg/mL
same,solubility,"[7]; organic solvent or mixture, thermodynamic from solid, dimethylformamide (DMF), at RT, read-out: Solubility",> 50000 µg/mL
same,solubility,"[7]; organic solvent or mixture, thermodynamic from solid, ethanol (EtOH), at 60° C., read-out: Solubility",< 1000 µg/mL
same,solubility,"[7]; organic solvent or mixture, thermodynamic from solid, ethyl formate, at 60° C., read-out: Solubility",< 1000 µg/mL
same,solubility,"[7]; organic solvent or mixture, thermodynamic from solid, methanol (MeOH), at RT, read-out: Solubility",1000 µg/mL
same,solubility,"[7]; organic solvent or mixture, thermodynamic from solid, methyl ethyl ketone (MEK), at 60° C., read-out: Solubility",< 1000 µg/mL
same,solubility,"[7]; organic solvent or mixture, thermodynamic from solid, tetrahydrofuran (THF), at 60° C., read-out: Solubility",< 1000 µg/mL
same,solubility in aqueous solvents with high water activities (qualitative),[7]; polymorph screening by salt formation in situ,soluble
same,solubility,"[7]; thermodynamic from solid, water, at 60° C., read-out: Solubility",< 1000 µg/mL
same,"KF-Oven % Water, Av","[8]; RT, 20% RH",1.23%
same,"KF-Oven % Water, single determinations","[8]; RT, 20% RH",1.22% and 1.24%
same,KF-Oven water,"[8]; RT, 20% RH",0.7 mol/mol
same,XRPD Result,"[8]; RT, 20% RH",Form A
same,"KF-Oven % Water, Av","[8]; RT, 39% RH",1.59%
same,"KF-Oven % Water, single determinations","[8]; RT, 39% RH",1.67% and 1.50%
same,KF-Oven water,"[8]; RT, 39% RH",0.9 mol/mol
same,XRPD Result,"[8]; RT, 39% RH",Form A
same,"KF-Oven % Water, Av","[8]; RT, 58% RH",1.58%
same,"KF-Oven % Water, single determinations","[8]; RT, 58% RH",1.53% and 1.63%
same,KF-Oven water,"[8]; RT, 58% RH",0.9 mol/mol
same,XRPD Result,"[8]; RT, 58% RH",Form A
same,"KF-Oven % Water, Av","[8]; RT, 75% RH",1.73%
same,"KF-Oven % Water, single determinations","[8]; RT, 75% RH",1.82% and 1.63%
same,KF-Oven water,"[8]; RT, 75% RH",0.9 mol/mol
same,XRPD Result,"[8]; RT, 75% RH",Form A
same,"KF-Oven % Water, Av","[8]; RT, 97% RH",3.86%
same,"KF-Oven % Water, single determinations","[8]; RT, 97% RH",3.77% and 3.94%
same,KF-Oven water,"[8]; RT, 97% RH",~2.1 mol/mol
same,XRPD Result,"[8]; RT, 97% RH",Form A
same,"KF-Oven % Water, Av","[8]; RT, ~0% RH",1.08%
same,"KF-Oven % Water, single determinations","[8]; RT, ~0% RH",1.14% and 1.01%
same,KF-Oven water,"[8]; RT, ~0% RH",0.6 mol/mol
same,KF-Oven water (moles),"[8]; RT, ~0% RH",approximately 0.6 moles
same,XRPD Result,"[8]; RT, ~0% RH",Form A
same,water content in the relative humidity range 40-75% RH (Karl Fisher),[8]; room temperature,approximately 0.9 moles
same,changes by XRPD after storage at various relative humidity conditions,"[8]; room temperature, 0 to 97% RH",no changes were observed
